Measured values taken from US20260335307A1, “ANTIMICROBIAL COMBINATIONS” (Helperby Therapeutics Limited, priority 2022, published 2026).

How the values were obtained:
[1] = system: ESBL E. coli; assay: Chequerboard assay (OD600, MIC and FIC) of 4-mer combinations against ESBL E. coli; format: cell-based; details: for MIC combination therapy (Y): drug in 4-mer ceftazidime, doxycycline; for MIC Monotherapy (X): drug alone; for Ratio Y:X: MIC combination / MIC monotherapy
Description: (§1) Synergy is not predictable or expected when two or more actives are used in combination. […] One of the ways to assess whether synergy has been observed is to use the “chequerboard” technique. This is a well-accepted method that leads to the generation of a value called the fractional inhibitory concentration index (FICI). Orhan et al., J. Clin. Microbiol. 2005, 43(1):140 describes the chequerboard method and analysis in the paragraph bridging pages 140-141, and explains that the FICI value is a ratio of the sum of the MIC (Minimum Inhibitory Concentration) level of each individual component alone and in the mixture.
FICI or fractional inhibitory concentration index is the sum of the FICs of each antimicrobial when used in combination. The FIC or fractional inhibitory concentration of an antimicrobial in a combination, is the MIC of the antimicrobial in the combination divided by the MIC of the same antimicrobial when used alone. Minimum inhibitory concentrations are defined in the art as the lowest concentration of an antimicrobial that will inhibit the visible growth of a microorganism after overnight incubation.
There has in fact been very little previous work in this field. […] This method is applicable for any combination with “n” antimicrobial agents.
In this method, two antibiotics were “fixed” as part of a backbone whilst the two other antibiotics were varied over a doubling concentration scale beginning at the MIC (×1) for the effective dose in monotherapy against the organism being tested. The ΣFIC was then calculated as shown below.
The ΣFIC was divided by “0.5/n” where n=number of antimicrobials in the combination to provide FIC. The inventors opted for this expression because it more closely aligns with the 2-mer synergy levels. The same FIC scale as used for 2-mers was applied: synergy is observed when FIC is <0.5. An “Additive” effect is observed when FIC is 0.5 to <1. Indifference is observed when FIC is 1 to <2. Antagonism is observed when FIC is 2 to 4.
Synergy can be expressed as “ΣFIC≤0.25×n”.
The above method was used in the Examples herein.
The antimicrobial agents were sourced from commercially available sources. They were prepared by being weighed and dissolved in water, PBS, DMSO or acidified water to a final concentration from 1-10 mg/mL. Antimicrobial solutions were diluted to 10× highest concentration used in the experiment and subsequently diluted 2x over a series not exceeding 11 serial dilutions. These left the operator with a maximum of 12 different, descending concentrations of the chosen antimicrobials.
The bacteria were obtained from Ninewells Hospital and Medical School in Dundee, Scotland. They were obtained as patient strains and characterised by Vitek 2 screening. To prepare for the Examples below, the bacteria were grown overnight in Mueller Hinton Cation adjusted broth or until confluent in media with or without supplements. The bacteria were measured for OD600 and readings of <0.25 were returned to the incubator.
All data herein was produced using the same chequerboard assay.
20 uL of antibiotic A (backbone) and 20 uL of antibiotic B (backbone), at a single dilution, were pipetted into all wells of a 96-well plate to be used.
20 uL of the lowest concentration of antibiotic C (first variable) was pipetted into column 1 of the 96-well plate. The second concentration (2-fold more concentrate) was pipetted into column 2. This process was repeated until all concentrations of antibiotic […] to be used were complete.
20 uL of the lowest concentration of antibiotic D (second variable) were pipetted into row A of the 96-well plate. The second concentration (2-fold more concentrate) was pipetted into row B. This process was repeated until all concentrations of antibiotic […] to be used were complete.
120 uL of sterile media (BHI/MHB2) was added.
20 ul of prepared bacterial culture was added.
Plates were sealed with lids and left to incubate for 16 hours, overnight.

[2] = system: KPC (Klebsiella pneumoniae carbapenemase) producing K. pneumoniae; assay: Chequerboard assay (percentage kill from OD600, MIC and FIC) of 4-mer combination against KPC producing K. pneumoniae; format: cell-based; details: Example 4, backbone ceftazidime + colistin
Description: as §1
FICI or fractional inhibitory concentration index is the sum of the FICs of each antimicrobial when used in combination. […]
In this method, two antibiotics were “fixed” as part of a backbone whilst the two other antibiotics were varied over a doubling concentration scale beginning at the MIC (×1) for the effective dose in monotherapy against the organism being tested. The ΣFIC was then calculated as shown below. […]
Synergy can be expressed as “ΣFIC≤0.25×n”. […]
The bacteria were obtained from Ninewells Hospital and Medical School in Dundee, Scotland. […] The bacteria were measured for OD600 and readings of <0.25 were returned to the incubator. […]

[3] = Example 1, backbone ceftazidime + doxycycline, colistin, rifampicin
[4] = Example 2, backbone colistin + doxycycline, colistin, levofloxacin
[5] = Example 3, backbone rifampicin + doxycycline, rifampicin, levofloxacin
[6] = Example 1, backbone ceftazidime + doxycycline
[7] = Example 1, backbone colistin + ceftazidime
[8] = Example 2, backbone colistin + doxycycline
[9] = Example 3, backbone rifampicin + doxycycline

Compound	MIC ([1]; Escherichia coli, read-out: isolate resistant to ceftazidime at)	MIC combination therapy (Y) [1, 3]	MIC combination therapy (Y) [1, 4]	MIC combination therapy (Y) [1, 5]	MIC Monotherapy (X) [1, 6]	MIC Monotherapy (X) [1, 7]	MIC combination therapy (Y) ([1]; Example 1, backbone colistin + ceftazidime, colistin, rifampicin)	MIC Monotherapy (X) [1, 8]	MIC Monotherapy (X) [1, 9]	MIC Monotherapy (X) ([2]; drug alone)	MIC combination therapy (Y) ([2]; drug in 4-mer ceftazidime, doxycycline, rifampicin, colistin)	Ratio Y:X [1, 8]	Ratio Y:X [1, 9]
CC(C)(O/N=C(\C(=O)N[C@@H]1C(=O)N2C(C(=O)[O-])=C(C[n+]3ccccc3)CS[C@H]12)c1csc(N)n1)C(=O)O [Ceftazidime]	≥ 32 µg/mL	4 µg/mL	16 µg/mL	16 µg/mL									
C[C@H]1c2cccc(O)c2C(=O)C2=C(O)[C@]3(O)C(=O)C(C(N)=O)=C(O)[C@@H](N(C)C)[C@@H]3[C@@H](O)[C@@H]21 [Doxycycline]					1 µg/mL	1 µg/mL	0.25 µg/mL	1 µg/mL	1 µg/mL	1 µg/mL	0.25 µg/mL		
C[C@H]1COc2c(N3CCN(C)CC3)c(F)cc3c(=O)c(C(=O)O)cn1c23 [Levofloxacin]			0.25 µg/mL	0.25 µg/mL				8 µg/mL	8 µg/mL			0.03125	0.03125
CO[C@H]1/C=C/O[C@@]2(C)Oc3c(C)c(O)c4c(O)c(c(/C=N/N5CCN(C)CC5)c(O)c4c3C2=O)NC(=O)/C(C)=C\C=C\[C@H](C)[C@H](O)[C@@H](C)[C@@H](O)[C@@H](C)[C@H](OC(C)=O)[C@@H]1C [Rifampicin]		0.5 µg/mL			4 µg/mL	4 µg/mL			1 µg/mL				
